Results: paper PMC3605638 (The Journal of Biological Chemistry, 2013)

Target: T1, D. discoideum class I RNR (NrdA + NrdB) (Dictyostelium discoideum, UniProt Q54Q71)
T1 sequence (Q54Q71 1-870): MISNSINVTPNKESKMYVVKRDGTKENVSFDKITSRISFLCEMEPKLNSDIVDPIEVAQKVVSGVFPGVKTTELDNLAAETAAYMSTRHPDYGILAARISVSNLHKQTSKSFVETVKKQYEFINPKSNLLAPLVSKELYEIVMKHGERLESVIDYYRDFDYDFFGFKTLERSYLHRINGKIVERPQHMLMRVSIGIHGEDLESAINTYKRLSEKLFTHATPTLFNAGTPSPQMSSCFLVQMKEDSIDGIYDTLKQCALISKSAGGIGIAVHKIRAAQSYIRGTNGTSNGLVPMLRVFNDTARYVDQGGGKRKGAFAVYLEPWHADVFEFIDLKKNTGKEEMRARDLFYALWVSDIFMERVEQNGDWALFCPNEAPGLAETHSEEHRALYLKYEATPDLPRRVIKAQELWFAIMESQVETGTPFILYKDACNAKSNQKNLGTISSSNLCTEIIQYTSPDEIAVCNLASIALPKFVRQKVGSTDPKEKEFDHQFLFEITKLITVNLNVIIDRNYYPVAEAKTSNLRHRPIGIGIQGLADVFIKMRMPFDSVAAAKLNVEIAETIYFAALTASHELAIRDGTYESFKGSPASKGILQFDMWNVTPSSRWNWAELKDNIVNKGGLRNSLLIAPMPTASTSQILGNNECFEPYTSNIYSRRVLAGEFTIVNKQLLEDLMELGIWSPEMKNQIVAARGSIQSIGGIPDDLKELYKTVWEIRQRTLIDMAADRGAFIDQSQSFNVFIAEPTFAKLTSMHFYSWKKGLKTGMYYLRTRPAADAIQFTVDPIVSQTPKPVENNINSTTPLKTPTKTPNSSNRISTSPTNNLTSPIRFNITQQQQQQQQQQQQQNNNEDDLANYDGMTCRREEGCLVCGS
T1 sequence (P42521 1-338 partner): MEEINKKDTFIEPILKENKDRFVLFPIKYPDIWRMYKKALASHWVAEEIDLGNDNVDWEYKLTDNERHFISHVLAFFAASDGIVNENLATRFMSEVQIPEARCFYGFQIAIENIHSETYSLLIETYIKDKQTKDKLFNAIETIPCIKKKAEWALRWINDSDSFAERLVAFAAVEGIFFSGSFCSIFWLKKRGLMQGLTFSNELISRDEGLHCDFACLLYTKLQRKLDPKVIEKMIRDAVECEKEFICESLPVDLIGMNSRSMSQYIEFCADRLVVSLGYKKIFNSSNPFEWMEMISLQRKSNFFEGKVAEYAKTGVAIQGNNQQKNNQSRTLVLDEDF
Assay: radiolabelled GDP reduction assay
Format: biochemical
Details: dTTP as effector; 0.7 mM [14C]GDP; labelled compound; pH 7.5, 25 °C

Nc1nc2c(ncn2[C@@H]2O[C@H](COP(=O)(O)OP(=O)(O)O)[C@@H](O)[C@H]2O)c(=O)[nH]1 [GDP]
radiolabelled GDP reduction assay: characterized in vitro with CDP or GDP as substrate
